Entries after “also recorded” stand apart in the source; their conditions may differ. Where two headings read alike, the source gives them in different places.
How the values were obtained:
VEGF mRNA [1] = test: VEGF mRNA expression in cultured rat mesothelial cells (semiquantitative RT-PCR); assay type: cell-based; conditions: 3 hours
Protocol: Peritoneum was obtained from 6-week-old male CD (SD) IGS rats (Charles-River, Kanagawa, Japan). Mesothelial cells were isolated based on the method of Hjelle et al. (Hjelle J T et al., Perit Dial Int, 9: 341-347 (1989)) and cultured in Dulbecco's modified Eagle's medium (DMEM) containing 10% fetal bovine serum. The mesothelial cells at passage 7 to 10 were cultured for 3 hours in a CO2 incubator in the presence of various concentrations of glucose degradation products (glyoxal, methylglyoxal (Sigma, St. Louis, Mo.), or 3-deoxyglucosone (kindly provided from Fuji Memorial Research Institute, Otsuka Pharmaceutical Co., Kyoto, Japan). The expression of VEGF mRNA was analyzed by semiquantitative RT-PCR. Total RNA was isolated from the mesothelial cells using Rneasy Mini Kit (Qiagen, Germany). Five micrograms of the RNA was reverse-transcribed using oligo(dT)12-18 primers (Gibco BRL, Gaithersburg, Md.) with 200 units of RNase H-free reverse transcriptase (Superscript II: Gibco BRL) and PCR amplification was performed as described previously (Miyata T et al., J Clin Invest, 93: 521-528 (1994)). The sequences of the primers used for the amplification of rat VEGF were 5′-[…]-3′ (SEQ ID NO: 1) and 5′-[…]-3′ (SEQ ID NO: 2). The amplified product was 310 bp long. The primers used for the amplification of rat glyceraldehyde-3-phosphate dehydrogenase. (G3PDH) were 5′-[…]-3′ (SEQ ID NO: 3) and 5′-[…]-3′ (SEQ ID NO: 4) and amplified a 322 bp fragment. The G3PDH served as an internal RNA control to allow comparison of RNA levels among different specimens. […] PCR products resolved by electrophoresis in 1.5% agarose gel and stained with ethidium bromide were quantified by measuring the signal intensity with a quantification program (NIH image). […] Messenger RNA was determined in triplicate and the results were averaged for each experiment. […] The results were averaged and expressed as mean±S.D. The statistical significance was evaluated by analysis of variance (ANOVA). […]

[2] = trapping of methylglyoxal by guanidine, aminoguanidine and biguanide agents; conditions: 0.1 M phosphate buffer pH 7.4, 37° C., agent 50 μl of 30 mM
Protocol: (§1) A mixture (50 μl) of glyoxal, methylglyoxal, and 3-deoxyglucosone (1 mM each) was further mixed with 400 μl of 0.1 M phosphate buffer (pH 7.4), and each (50 μl; 30 mM) of guanidine, aminoguanidine, or a biguanide agent. The resulting mixture was incubated at 37° C. Biguanide agents used were metformin, buformin, and phenformin. After the incubation, glyoxal, methylglyoxal, and 3-deoxyglucosone were converted to quinoxaline derivatives by using o-phenylenediamine, and then the respective concentrations were determined by high performance liquid chromatography.

[3] = subcutaneously administered, rat; cited from earlier work
[4] = trapping of 3-deoxyglucosone by guanidine, aminoguanidine and biguanide agents; conditions: 0.1 M phosphate buffer pH 7.4, 37° C., agent 50 μl of 30 mM
Protocol: as §1

[5] = subcutaneously administered, mouse; cited from earlier work
[6] = generation of carbonyl compounds in peritoneal dialysate during heat sterilization (2,4-DNPH); conditions: acidic and neutral pH, sterilization 121° C.
From the text: (§2) Peritoneal dialysates contain a high concentration of glucose as an osmoregulatory agent (1.35-4.0 w/v %). Glucose is unstable to heating and undergoes degradation during heat sterilization or storage. Degradation products of glucose have been reported to include 5-hydroxymethylfurfural (5-HMF), levulinic acid, and acetaldehyde (Richard, J. U. et al., Fund. Appl. Toxic., 4: 843-853 (1984), Nilsson, C. B. et al., Perit. Dial. Int., 13: 208-213 (1993)). The inventors tested aminoguanidine for its inhibiting effect on the generation of carbonyl compounds during heat sterilization of a peritoneal dialysate, by monitoring the quantities of 5-HMF and carbonyl compounds. Since the degree of glucose degradation is affected by pH of the solution, two peritoneal dialysates of acidic pH (pH 5.3) and neutral pH (pH 7.0) were prepared to carry out the experiment. Sterilization temperature was 121° C.
Quantification of carbonyl compounds in the peritoneal dialysate was carried out in the same manner as described in Example 1 by measuring the absorbance after the reaction with 2,4-DNPH (Levine, R. L. et al., Methods Enzymol., 233: 346-357 (1994)). Sterilization temperature was 121° C.

[7] = generation of 5-HMF in peritoneal dialysate during heat sterilization (HPLC); conditions: sterilization 121° C.
From the text: as §2
5-HMF was assayed by high performance liquid chromatography (SHIMADZU Co.; LC-10A) (Nilsson, C. B. et al., Perit. Dial. Int., 13: 208-213 (1993)).

[8] = amount of carbonyl compounds other than glucose in peritoneal dialysate (CAPD) effluent, 2,4-DNPH assay; parameters: species or system human; conditions: effluent, 0, 10, 50, 250 mM, unincubated and incubated (37° C. for 15 hours)
Protocol: The peritoneal dialysate effluent was recovered from the patient and filtered with a filter with a pore size of 0.45 μm. Aminoguanidine (Tokyo Kasei Kogyo Co.) was added to the fluid at a concentration of 0, 10, 50, or 250 mM to prepare a sample solution. An aliquot (1 ml) of the sample solution was added into a plastic tube with a screw cap, and the tube was incubated at 37° C. for 15 hours. The sample solutions were stored at −30° C. prior to the incubation.
Each of 400-μl aliquots of sample solutions was mixed with a 400-μl solution of 0.5 N hydrochloric acid containing 1.5 mM 2,4-DNPH (Wako Pure Chemical Industries, Ltd.), and then, the mixture was stirred at room temperature for 30 minutes to react the carbonyl compound with 2,4-DNPH. […] The aqueous layer was recovered and the absorbance thereof was measured at 360 nm in a spectrophotometric microplate reader (Nippon Molecular Devices Co.; SPECTRAmax250).
Aqueous solutions of various glucose concentrations were prepared and the amounts of carbonyl compounds derived from glucose were measured by the same method as described in (i); a calibration curve of glucose concentration vs. concentration of carbonyl compound was prepared based on this experiment.
Respective glucose concentrations of the samples were determined by using a glucose assay kit (Wako Pure Chemical Industries, Ltd.; Glucose CII-Test Wako). […]

[9] = generation of pentosidine on incubation of peritoneal dialysis effluent; parameters: species or system human; conditions: peritoneal dialysis effluent, 0, 1, 10, 100 mM, 37° C.
Protocol: An effluent from a peritoneal-dialysis patient, which had been kept overnight, was centrifuged, and the resulting supernatant was sterilized by filtration (pore size; 0.45 μm). Aminoguanidine (Tokyo Kasei Kogyo Co.) was added to the fluid at a final concentration of 0, 1, 10, or 100 mM. The mixture was incubated at 37° C. The incubation period was […] when assaying pentosidine, and 2 weeks when assaying protein carbonyl. The quantitative assay for pentosidine was performed using HPLC (SHIMADZU Co.; LC-10A) after the hydrolysis of proteins in 6 N HCl at 110° C. (T. Miyata et al., 1996, J. Am. Soc. Nephrol, 7:1198-1206; T. Miyata et al., 1996, Proc. Natl. Acad. Aci. USA, 93:2353-2358). The quantitative determination of protein carbonyl was carried out by measuring the absorbance (Nippon Molecular Devices Co.; SPECTRAmax 250) of hydrazone generated by the reaction of a carbonyl group after incubation with 2,4-dinitrophenylhydrazine (2,4-DNPH; Wako Pure Chemical Industries, Ltd.) (Levine, R. L. et al., Methods Enzymol., 233, 346-357 (1994)).

VEGF mRNA [10] = test: VEGF mRNA expression and histology of peritoneal tissue of rats given daily intraperitoneal injections; assay type: in vivo, rat; conditions: daily intraperitoneal injection for 10 days
Protocol: To further assess the biological effects of methylglyoxal on VEGF mRNA expression in the peritoneum in vivo, rats were given various amounts of methylglyoxal into their peritoneal cavity for 10 days. Six-week-old male CD (SD) IGS rats were given a daily intraperitoneal injection of 50 ml/kg of a saline solution containing various concentrations of methylglyoxal for 10 days. Peritoneum was isolated from the parietal walls and investigated for VEGF mRNA expression. Experiments were performed as the above-mentioned in vitro experiments for rat mesothelial cells. However, mRNA was extracted from peritoneal tissues with ISOGEN (Nippon Gene, Tokyo, Japan). In addition, PCR amplification was performed for 28 cycles for VEGF mRNA and for 16 cycles for G3PDH mRNA.

VEGF mRNA [11] = test: VEGF mRNA expression in human endothelial cells (RT-PCR); assay type: cell-based; conditions: 0 to 400 μM
Protocol: VEGF mRNA expression was then assessed in endothelial cells cultured in the presence of various concentrations (0 to 400 μM) of methylglyoxal. Experiments were performed as those for rat mesothelial cells. However, primers used for human VEGF amplification were 5′-[…]-3′ (SEQ ID NO: 5) and 5′-[…]-3′ (SEQ ID NO: 6). The amplified fragment was 271 bp long. The same primers were used for human and rat G3PDH amplifications.

VEGF protein = VEGF protein release into culture supernatant (ELISA); assay type: cell-based; conditions: human microvascular endothelial cells, 0, 200, 400 μM, 24 hours
Protocol: The release of VEGF protein into the culture supernatant was measured by ELISA for […] cultured for 24 hours in the presence of various concentrations of methylglyoxal. Human microvascular endothelial cells were purchased from Kurabo (Osaka, Japan) and cultured in VEGF-depleted EGM-2 medium (Takara, Tokyo, Japan). The cells were incubated with methylglyoxal in the same manner as rat peritoneum mesothelial cells. The VEGF protein in the culture supernatant prepared in duplicate was quantified by enzyme-linked immunosorbent assay (ELISA) using a kit (Quantikine: R&D Systems, Minneapolis, USA) according to the attached manual. The experiment was repeated three times. The results were statistically analyzed as described above.

[12] = trapping of glyoxal by albumin; conditions: 0.1 M phosphate buffer pH 7.4, 37° C., 50 μl of 100 mg/ml
Protocol: (§3) A solution (50 μl) consisting of glyoxal, methylglyoxal, and 3-deoxyglucosone (1 mM each) was further mixed with 400 μl of 0.1 M phosphate buffer (pH 7.4), 50 μl of 100 mg/ml bovine serum albumin solution, and the resulting mixture was incubated at 37° C. After the incubation, glyoxal, methylglyoxal, and 3-deoxyglucosone were converted to quinoxaline derivatives by using o-phenylenediamine, and then the respective concentrations were determined by high performance liquid chromatography.

[13] = trapping of methylglyoxal by albumin; conditions: 0.1 M phosphate buffer pH 7.4, 37° C., 50 μl of 100 mg/ml
Protocol: as §3

Molecule: O=CC=O [glyoxal]
- VEGF mRNA expression (VEGF mRNA [1]; 0 to 400 μM): neither glyoxal nor 3-deoxyglucosone modified VEGF expression

Molecule: N=C(N)N [Guanidine, guanidine]
- concentration of methylglyoxal [2]: markedly reducing the concentration of methylglyoxal

Molecule: N=C(N)NN [aminoguanidine]
- half-lethal dose [3]: 1258 mg/kg
- concentration of 3-deoxyglucosone [4]: markedly reducing the concentration of 3-deoxyglucosone
- half-lethal dose [5]: 963 mg/kg
- concentration of methylglyoxal [2]: markedly reducing the concentration of methylglyoxal; also recorded: drastically reduced the concentration of methylglyoxal
- generation of carbonyl compounds [6]: effectively inhibited the generation of carbonyl compounds in a concentration-dependent manner
- generation of 5-HMF ([7]; peritoneal dialysate acidic pH (pH 5.3)): effectively inhibited the generation of 5-HMF in a concentration-dependent manner
- generation of 5-HMF ([7]; peritoneal dialysate neutral pH (pH 7.0)): effectively inhibited the generation of 5-HMF in a concentration-dependent manner
- amounts of carbonyl compounds other than glucose [8]: decreased
- generation of pentosidine [9]: inhibit the generation of pentosidine in a concentration-dependent manner

Molecule: CC(=O)C=O [methylglyoxal]
- peritoneal tissue on optical microscopy (VEGF mRNA [10]): unaffected
- VEGF mRNA expression in parietal peritoneum (VEGF mRNA [10]; P<0.05): increased significantly
- VEGF mRNA expression (VEGF mRNA [11]): rose in a dose-dependent manner
- VEGF mRNA expression (VEGF mRNA [1]; 400 μM, P<0.0005): stimulated VEGF mRNA expression
- VEGF protein released into culture supernatant (VEGF protein): dose-dependent increase of VEGF

Molecule: O=CC(=O)C[C@H](O)[C@H](O)CO [3-deoxyglucosone]
- VEGF mRNA expression (VEGF mRNA [1]; 0 to 400 μM): neither glyoxal nor 3-deoxyglucosone modified VEGF expression

Molecule: Bovine serum albumin: bovine serum albumin solution, 100 mg/ml; SH group-containing protein
- concentration of glyoxal [12]: markedly reducing the concentrations of glyoxal and methylglyoxal
- concentration of methylglyoxal [13]: markedly reducing the concentrations of glyoxal and methylglyoxal

Reference: patent US7297689B2, “Method for preparing peritoneal dialysate” (Tokai University Educational System, priority 1998, dated 2007)
